Test results taken from article PMC7016952, “Characterization of the Menin-MLL Interaction as Therapeutic Cancer Target” (Cancers, 2020).

What was measured:
[1] = system: MOLM-13 xenograft; experiment: MOLM-13 xenograft efficacy; format: in vivo, mice; conditions: p.o.
Experimental: (§1) Tumor cells were injected subcutaneously into the flanks of 6- to 9-week old animals. Efficacy studies in xenograft models were performed at Bayer or EPO GmbH (Berlin-Buch, Germany) using NMRI nu/nu, SCID, BALB/c Nude female mice or SCID male mice (VCaP tumors). All animal studies were conducted in accordance with the animal welfare laws and were approved by the State Office for Health and Social Affairs Berlin (LAGeSo). Experiments were run under the animal license B3600a0007. Compound treatment started at a predefined tumor size or burden or at a predefined day after cell inoculation. BAY-155 was administered orally (p.o.) at various doses and regorafenib, tamoxifen and enzalutamide (resuspended in PEG400/H2O 6/4 or PEG400/EtOH 9/1) were used as control treatment for RKO, MCF7 and VCaP xenografts, respectively. Subcutaneous tumor volumes were determined by caliper measurement.

[2] = system: safety pharmacology relevant proteins (GPCRs, ion channels and transporters); experiment: Selectivity panel of safety pharmacology assays; conditions: 10 µM
[3] = system: MOLM-13 cells; experiment: Proliferation inhibition, MOLM-13; format: cell-based, human
[4] = cited from earlier work
[5] = system: MV4;11 cells; experiment: Proliferation inhibition, MV4;11; format: cell-based, human; conditions: MV4;11
[6] = target: CYP 2C8 (Homo sapiens, UniProt P10632); conditions: cited from earlier work
CYP 2C8, sequence (P10632 whole entry): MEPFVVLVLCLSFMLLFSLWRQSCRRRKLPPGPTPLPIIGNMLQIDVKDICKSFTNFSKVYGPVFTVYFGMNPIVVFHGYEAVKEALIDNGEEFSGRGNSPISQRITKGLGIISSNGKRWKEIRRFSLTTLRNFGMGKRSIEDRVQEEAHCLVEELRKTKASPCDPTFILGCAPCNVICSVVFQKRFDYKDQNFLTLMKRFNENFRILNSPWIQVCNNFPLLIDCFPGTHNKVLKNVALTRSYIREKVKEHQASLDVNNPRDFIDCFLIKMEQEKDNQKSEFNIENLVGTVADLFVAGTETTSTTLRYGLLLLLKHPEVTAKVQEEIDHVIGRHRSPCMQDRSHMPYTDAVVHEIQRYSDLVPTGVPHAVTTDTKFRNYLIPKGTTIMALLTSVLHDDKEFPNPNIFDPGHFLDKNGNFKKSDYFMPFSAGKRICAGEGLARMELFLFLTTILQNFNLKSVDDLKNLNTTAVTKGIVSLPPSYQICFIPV

[7] = system: PANC-1 cells; experiment: RNA-seq differential gene expression, PANC-1; format: cell-based; conditions: PANC-1, 5 µM, 48 h
Experimental: (§2) Total RNA was isolated using RNeasy-Plus Mini kit (Qiagen, Hilden, Germany). RNA (1 μg) was reverse transcribed using SuperScript III First-Strand Synthesis SuperMix (Life Technologies) and the generated cDNA was analyzed with commercial primers (Supplementary Materials Table S1) by qRT-PCR using TaqMan Fast Advanced Master Mix (Life Technologies). For the RNA-seq study, ZR-75-1, BT474, PANC-1, MiaPaCa-2, 22RV1, JMSU-1, DLD-1, SW1463, LoVo and G401 cells were treated with 5 µM BAY-155 or DMSO for 48 h prior to RNA extraction. After 48 h of 5 µM BAY-155 or DMSO treatment, MCF7, VCaP and LNCaP cells were stimulated for further 12 h with 0.1 nM of E2 (ß-Estradiol) or 1 nM R1881, respectively. MCF7, VCaP and LNCaP cells were cultured in starvation medium (containing 5 µM BAY-155 or DMSO) 6 h before stimulation. RNA was isolated using RNeasy-Plus Mini kit (Qiagen). The purified RNA was used for library preparation (Illumina, San Diego, CA, USA. TruSeq Stranded mRNA Kit) and the generated libraries were sequenced (Illumina, HiSeq2500 HTv4, SR, dual-indexing, 50 cycles).
RNA-seq reads were aligned to hg38 using STAR aligner. Protein-coding genes with more than 10 reads in more than three samples were used for the analysis (total samples N = 86; genes N = 13,003). […]

[8] = system: VCaP cells; experiment: RNA-seq after R1881 stimulation, VCaP; format: cell-based, human
Experimental: as §2
RNA-seq reads were aligned to hg38 using STAR aligner. Protein-coding genes with more than 10 reads in more than three samples were used for the analysis (total samples N = 86; genes N = 13,003). DESeq2 was used to find genes differentially expressed upon treatment by the menin inhibitor in each cell line compared to DMSO or hormonal treatment (for MCF-7, LNCaP and VCaP cell lines). […] GSEA analysis was run on the pre-ranked list based on logFC in prostate (VCaP and LNCaP) and breast (MCF7) cell lines. Data are available at GEO under accession number GSE136272.

[9] = system: MV4;11 xenograft; experiment: MV4;11 xenograft efficacy; format: in vivo, mice
Experimental: as §1, with “BAY-155 was administered orally (p.o.) at various doses and regorafenib, tamoxifen and enzalutamide (resuspended in PEG400/H2O 6/4 or PEG400/EtOH 9/1) were used as control treatment for RKO, MCF7 and VCaP xenografts, respectively.” left out

[10] = cited from earlier work; remark: listed apart in the source
[11] = system: KYSE-150 xenograft; experiment: KYSE-150 xenograft efficacy; format: in vivo, mice; conditions: 120 mg/kg QD p.o.
Experimental: as §1

[12] = system: MEIS1, MNDA and CD11b expression in MV4;11 and MOLM-13 cells; experiment: qRT-PCR of hematopoietic differentiation genes; format: cell-based, human; conditions: four days of treatment, in comparison to MI-503
Experimental: as §2

[13] = system: RKO xenograft; experiment: RKO xenograft efficacy; format: in vivo, mice
Experimental: as §1

[14] = system: AR signaling pathway genes in VCaP tumor samples; experiment: Ex vivo gene expression in VCaP xenografts; parameters: species or system mice; conditions: 52 days of treatment
Experimental: as §2
Tumors were harvested, dissociated and total RNA was extracted using the TissueLyser (Qiagen, Hilden, Germany) together with RNeasy-Plus Mini kit according to the manufacturer protocol.

[15] = system: T1, menin protein levels in VCaP cells; experiment: Western blot of menin protein level; format: cell-based, human; conditions: Western blot
T1 construct: endogenous in cells; host or cells: VCaP

Cc1c(CN2CCC3(CC2)CN(c2ncnc4sc(CC(F)(F)F)cc24)C3)ccc2c1cc(C#N)n2CC(N)=O [BAY-155]
tumor volume [1]: dose-dependent inhibition of tumor volume
tumor weight [1]: significant reduction of tumor weight
number of tested proteins inhibited by ≥ 50% [2]: 7
cases in which an IC50 value could be reached ([2]; of 77 targets): 7/77
fold improved proliferation inhibition vs MI-503 [3]: 6.3 fold
in vivo CL blood Rat [4]: 18.3 mL/min/kg
in vivo F Rat [4]: 15.3%
fold improved proliferation inhibition vs MI-503 [5]: 2.8 fold
IC50 [6]: > 20 µM
number of differentially expressed genes [7]: 346 genes
GSEA of androgen-regulated gene sets [8]: significant reversal of androgen-induced gene expression changes
genes down-regulated by androgen stimulation that were elevated ([8]; 5 µM, R1881): 182 genes
genes up-regulated by androgen stimulation that were repressed ([8]; 5 µM, R1881): 36 genes
body weight ([9]; 180 mg/kg 2QD p.o.): no evidence of body weight loss
tumor volume T/C ([9]; 180 mg/kg 2QD p.o., regression): < 0.02
tumor weights ([9]; p.o.): clear concentration-dependent trend for reduced tumor weights
CLblood (metabolic stability in rat hepatocytes, as worded in text) [10]: 18.3 mL/min/kg
tumor volume T/C [11]: 0.67
tumor weight [11]: significant decrease in tumor weight
CD11b and MNDA gene expression [12]: up-regulation
MEIS1 gene expression [12]: stronger expression down-regulation
tumor volume and weight (anti-growth effects) [13]: no significant anti-growth effects
FKBP5 and TMPRSS2 expression ex vivo [14]: no significant changes
menin protein levels [15]: reduce menin protein levels in a time- and concentration-dependent manner
